Data on nine compounds can be found in article PMC10177380 (Cancers, 2023).

Details of data set [1]: method as in earlier work. To be noted: cited from earlier work.
A short description of data set [2]: Selectivity cytotoxicity index (GI50 in MCF10A/GI50 in Du145). To be noted: human, MCF10A normal breast cells and Du145 prostate cancer cells.
A further data set relates to HT29 colon. On the set-up: method as in PMID 36296713, PMID 36142383. The conditions noted are these: cited from earlier work.
A further data set relates to U87 glioblastoma. On the set-up: method as in PMID 36296713, PMID 36142383. The conditions noted are these: cited from earlier work.
A further data set deals with A2780 ovarian. On the set-up: method as in PMID 36296713, PMID 36142383. To be noted: cited from earlier work.
In a further data set the test system is H460 lung. On the set-up: method as in PMID 36296713, PMID 36142383. To be noted: cited from earlier work.
In the next data set the test system is A431 skin. On the set-up: method as in PMID 36296713, PMID 36142383. The conditions noted are these: cited from earlier work.
The test system of another data set is BE2C neuroblastoma. On the set-up: method as in PMID 36296713, PMID 36142383. To be noted: cited from earlier work.
A further data set relates to SJG2 glioblastoma. On the set-up: method as in PMID 36296713, PMID 36142383. To be noted: cited from earlier work.
Another data set relates to MIA pancreas. On the set-up: method as in PMID 36296713, PMID 36142383. To be noted: cited from earlier work.
The test system of data set [3] is non-tumour derived MCF10A breast line. On the set-up: method as in PMID 36296713, PMID 36142383. The conditions noted are these: cited from earlier work.
The subject of another data set is multiple cell lines. On the set-up: method as in PMID 36296713, PMID 36142383. The conditions noted are these: mean over all cell lines tested; cited from earlier work.
The subject of data set [4] is PC3 (prostate carcinoma) tumour. On the set-up: method as in PMID 18997969. To be noted: mice with PC3 tumour, cited from earlier work; for reduction in mean tumour mass: relative to vehicle-treated control.
The nature of data set [5]: Stability in 10 mM PBS monitored by HPLC. The data set is classed as physicochemical. To be noted: 10 mM PBS pH ~7.4, 36 h, room temperature and 37 °C. How it is done:
The stability measurements for complexes 1–6 were determined by dissolving each complex in 10 mM aqueous phosphate buffered saline (PBS) solution at pH ~7.4 and incubated at room temperature and at 37 °C for 36 h. The experiments were monitored via HPLC.
Additional stability studies for 1–6 were undertaken using 10 mM PBS (~7.4 pH) as the aqueous solution, but without the presence of a reducing agent such as AsA. This was only to show whether the complexes would be stable in aqueous solution for long hours. Each complex was dissolved in PBS and incubated at room temperature and at 37 °C for 36 h. After the incubation, all samples were analysed through HPLC. […] After 36 h at room temperature, peak traces of platinum(IV) complexes and the platinum(II) precursors, as well as the dissociated ACE ligand, were present, as shown in Figure S77. […] From this, it was reasoned that the larger the ligand conjugated to our platinum(IV) scaffold (i.e., ACE), the more susceptible the resulting derivatives (4–6) are to reduction, as they reduce even without a reducing agent. This parallels the results from the reduction experiments above, where 4–6 were the quickest to reduce in the presence of AsA.

Data set [6] is described as follows: Lipophilicity by HPLC (log kw). It counts as physicochemical. The conditions noted are these: extrapolated from log k versus % organic solvent. As for the experimental part:
Lipophilicity measurements were undertaken using HPLC, as previously described (see Supplementary Materials).
Lipophilicity measurements were undertaken using HPLC as previously described. The complexes were eluted at different isocratic ratios. The capacity factor (k) was calculated using the retention times of the complexes. A standard curve was generated to determine the log value of the capacity factor (log k), and this was performed by plotting the log k value at each isocratic ratio versus the percentage of the organic solvent used in solvent (Figure S61). This produced a linear expression that allowed for the extrapolation of log kw. Log kw is the measure of lipophilicity; therefore, a greater value corresponds to increased lipophilicity.

Data set [7] has as its system MCF10A / Du145. Briefly: Selectivity cytotoxicity index (GI50 in MCF10A/GI50 in Du145). The conditions noted are these: GI50 in MCF10A/GI50 in Du145.
The subject of data set [8] is MCF10A / Du145. On the set-up: method as in PMID 36296713, PMID 36142383. The conditions noted are these: GI50 in MCF10A/GI50 in Du145, from data of previous studies; cited from earlier work.
The subject of a further data set is HT29 colon cells. On the set-up: method as in PMID 36296713, PMID 36142383. The conditions noted are these: cited from earlier work.
The subject of data set [9] is peritoneal carcinomatosis. On the set-up: method as in PMID 20535526. To be noted: BD-IX rats, intravenous and intraperitoneal routes; cited from earlier work.

SMILES strings stand for the structures. Like-named read-outs stand apart in the source and are kept apart here.

`COc1ccc2c(c1)c(CC(=O)OCC(=O)O)c(C)n2C(=O)c1ccc(Cl)cc1` [ACE, acemetacin]: in data set [1], the reported lipophilicity values is 4.49. Moreover, the selectivity ratio in data set [2] is 1.
Broadly, the GI50 is the concentration at which growth is held to half of that of the control. With `N.N.[Cl][Pt][Cl]` [Cisplatin, cis-diamminedichloroplatinum(II)], the GI50 was 11.3 µM in the data set on HT29 colon; 3.8 ± 1.1 µM with U87 glioblastoma; 1 ± 0.1 µM in the data set with A2780 ovarian; 0.9 ± 0.2 µM in the data set on H460 lung; 2.4 ± 0.3 µM with A431 skin; 1.9 ± 0.2 µM in the data set with BE2C neuroblastoma. Besides, the GI50 is 0.4 ± 0.1 µM in the data set on SJG2 glioblastoma, 7.5 ± 1.3 µM with MIA pancreas, 5.2 ± 0.52 µM in [3] and 5.84 ± 0.61 µM in the data set on multiple cell lines. Besides, in data set [4], the “reduction in mean tumour mass” value is “comparable reduction in mean tumour mass”.
On to `COc1ccc2cc([C@H](C)C(=O)[O][Pt+2]3([OH])[N]4C=CC=c5cc(C)c6c(c54)[N]3C=CC=6)ccc2c1.N[C@H]1CCCC[C@@H]1N` (stereo partly drawn) [Complex 2, [Pt^IV(5-Mephen)(SS-DACH)(NPX)(OH)]^2+], for which the “stability in PBS” value in data set [5] is “some traces of precursor platinum(IV) complexes and the dissociated NPX ligand were evident”.
As for `COc1ccc2c(c1)c(CC(=O)OCC(=O)[O][Pt-2]13([OH])([NH2+][C@H]4CCCC[C@@H]4[NH2+]1)[n+]1cccc4ccc5ccc[n+]3c5c41)c(C)n2C(=O)c1ccc(Cl)cc1` [Complex 4, [Pt^IV(phen)(SS-DACH)(ACE)(OH)]^2+], the “log kw Values” in data set [6] is 1.93. The “Selectivity Cytotoxicity Index (SCI)” value in the data set with MCF10A / Du145 [7] came to 2.40.
For `COc1ccc2c(c1)c(CC(=O)OCC(=O)[O][Pt-2]13([OH])([NH2+][C@H]4CCCC[C@@H]4[NH2+]1)[n+]1cccc4cc(C)c5ccc[n+]3c5c41)c(C)n2C(=O)c1ccc(Cl)cc1` [Complex 5, [Pt^IV(5-Mephen)(SS-DACH)(ACE)(OH)]^2+], the “log kw Values” in data set [6] is 2.16. The “Selectivity Cytotoxicity Index (SCI)” value in the data set with MCF10A / Du145 [7] turned out to be 15.4.
For the compound `Cc1cc2c3c4c1=CC=C[N]4[Pt+2][N]3C=CC=2.N[C@H]1CCCC[C@@H]1N` [Complex 5MESS], the GI50 in the data set with HT29 colon is 0.033 ± 0.004 µM; with U87 glioblastoma, 0.32 ± 0.026 µM; in the data set with A2780 ovarian it was 0.061 ± 0.01 µM; with H460 lung it was 0.041 ± 0.005 µM; in the data set with A431 skin it was 0.12 ± 0.025 µM; in the data set on BE2C neuroblastoma, 0.27 ± 0.038 µM. The GI50 is 0.22 ± 0.01 µM in the data set with SJG2 glioblastoma, 0.048 ± 0.002 µM in the data set with MIA pancreas, 0.03 ± 0.002 µM in [3] and 0.117 ± 0.012 µM in the data set with multiple cell lines. Moreover, the “Selectivity Cytotoxicity Index (SCI)” value with MCF10A / Du145 [8] is listed as 1.36. For the same compound, the “ROS Production” value with HT29 colon cells (HT29, 24 h) is listed as 204 ± 4 RFU; in the data set with HT29 colon cells (HT29, 48 h), 205 ± 3 RFU; in the data set on HT29 colon cells (HT29, 72 h), 188 ± 3 RFU.
Take `COc1ccc2c(c1)c(CC(=O)OCC(=O)[O][Pt-2]13([OH])([NH2+][C@H]4CCCC[C@@H]4[NH2+]1)[n+]1cccc4c(C)c(C)c5ccc[n+]3c5c41)c(C)n2C(=O)c1ccc(Cl)cc1` [Complex 6, [Pt^IV(5,6-Me2phen)(SS-DACH)(ACE)(OH)]^2+]: the “log kw Values” in [6] was 2.29. For the same compound, in the data set on MCF10A / Du145 [7], the “Selectivity Cytotoxicity Index (SCI)” value was 15.5.
`Cc1c(C)c2cccnc2c2ncccc12.N[C@H]1CCCC[C@@H]1N.[Pt]` [Complex 56MESS, [Pt^II(5,6-Me2phen)(SS-DACH)]^2+]: the 50% growth inhibitory concentration (GI50) in the data set on HT29 colon is 0.01 ± 0.0016 µM; in the data set on U87 glioblastoma, 0.035 ± 0.0064 µM; in the data set on A2780 ovarian it was 0.076 ± 0.057 µM; in the data set with H460 lung, 0.021 ± 0.002 µM; in the data set on A431 skin it was 0.029 ± 0.001 µM; in the data set on BE2C neuroblastoma, 0.059 ± 0.004 µM. Further, the GI50 in the data set on SJG2 glioblastoma is 0.066 ± 0.022 µM; in the data set with MIA pancreas, 0.013 ± 0.002 µM; in data set [3], 0.016 ± 0.001 µM; in the data set with multiple cell lines, 0.036 ± 0.01 µM. For the same compound, the “Selectivity Cytotoxicity Index (SCI)” value in the data set with MCF10A / Du145 [8] is recorded as 3.48. Further, the “ROS Production” value is on record as 240 ± 5 RFU in the data set on HT29 colon cells (HT29, 24 h); 218 ± 3 RFU with HT29 colon cells (HT29, 48 h); 255 ± 4 RFU in the data set on HT29 colon cells (HT29, 72 h). In data set [9], the toxicity result was “induced nephrotoxicity”. For the same compound, the tumour suppression response result in [9] is given as “did not demonstrate tumour suppression response”.
Regarding `C1=C[N]2[Pt+2][N]3C=CC=c4ccc(c2c43)=C1.N[C@H]1CCCC[C@@H]1N` [PHENSS], the GI50 in the data set on HT29 colon was 0.16 ± 0.045 µM; in the data set with U87 glioblastoma it was 0.98 ± 0.27 µM; with A2780 ovarian it was 0.23 ± 0.03 µM; in the data set on H460 lung it was 0.36 ± 0.035 µM; in the data set with A431 skin, 0.48 ± 0.17 µM; in the data set with BE2C neuroblastoma it was 0.38 ± 0.046 µM. For the same compound, the GI50 with SJG2 glioblastoma was 0.33 ± 0.066 µM; in the data set on MIA pancreas, 0.2 ± 0.057 µM; in [3], 0.3 ± 0.058 µM; in the data set with multiple cell lines, 0.434 ± 0.11 µM. In the data set with MCF10A / Du145 [8], the “Selectivity Cytotoxicity Index (SCI)” value was 3.00. In addition, the “ROS Production” value with HT29 colon cells (HT29, 24 h) is recorded as 174 ± 2 RFU; with HT29 colon cells (HT29, 48 h), 172 ± 9 RFU; in the data set with HT29 colon cells (HT29, 72 h), 176 ± 7 RFU. Further, the “reduction in mean tumour mass” value in data set [4] is “comparable reduction in mean tumour mass”. For the same compound, in data set [4], the toxic side effects entry is “did not elicit any toxic side effects”.
